Read-outs that look alike come from different tables or passages of the source.

What all share (format): cell-based
For assay [1], the target named is hGLP-1R (Homo sapiens, UniProt P43220). The assay can be described thus: Functional cAMP formation (HTRF) in HEK-293 clonal cells expressing hGLP-1R, 0.1% bovine casein, without or with 1.0% human serum albumin. Also on record: expressed in transfected cells. The settings on record: for Emax: arithmetic mean; for EC50: cAMP, 0.1% bovine casein (no human serum albumin), geometric mean. Summed up: (§1)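 Cells were stimulated with peptide for 30 min at 37° C, then lysed in buffer carrying cAMP-d2 and anti-cAMP Eu3+-cryptate for a competitive HTRF read after at least 60 min at room temperature. The 665/620 nm ratio was converted to nM cAMP against a standard curve.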
hGLP-1R, sequence (P43220 24-463): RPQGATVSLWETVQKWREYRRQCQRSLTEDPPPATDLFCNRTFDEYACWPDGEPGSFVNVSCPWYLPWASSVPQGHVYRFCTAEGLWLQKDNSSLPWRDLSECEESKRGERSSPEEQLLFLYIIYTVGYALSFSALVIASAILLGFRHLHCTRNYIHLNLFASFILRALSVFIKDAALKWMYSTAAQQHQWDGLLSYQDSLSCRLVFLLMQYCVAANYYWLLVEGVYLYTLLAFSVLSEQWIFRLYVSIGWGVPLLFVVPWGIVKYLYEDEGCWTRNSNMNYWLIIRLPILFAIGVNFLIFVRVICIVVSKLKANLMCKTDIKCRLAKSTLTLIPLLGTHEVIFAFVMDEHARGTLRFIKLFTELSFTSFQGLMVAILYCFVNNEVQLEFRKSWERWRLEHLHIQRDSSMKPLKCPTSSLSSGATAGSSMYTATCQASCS

For assay [2], the target named is T1, hGCGR (Homo sapiens, UniProt P47871).
T1 construct: expressed in transfected cells
T1 sequence (P47871 26-477): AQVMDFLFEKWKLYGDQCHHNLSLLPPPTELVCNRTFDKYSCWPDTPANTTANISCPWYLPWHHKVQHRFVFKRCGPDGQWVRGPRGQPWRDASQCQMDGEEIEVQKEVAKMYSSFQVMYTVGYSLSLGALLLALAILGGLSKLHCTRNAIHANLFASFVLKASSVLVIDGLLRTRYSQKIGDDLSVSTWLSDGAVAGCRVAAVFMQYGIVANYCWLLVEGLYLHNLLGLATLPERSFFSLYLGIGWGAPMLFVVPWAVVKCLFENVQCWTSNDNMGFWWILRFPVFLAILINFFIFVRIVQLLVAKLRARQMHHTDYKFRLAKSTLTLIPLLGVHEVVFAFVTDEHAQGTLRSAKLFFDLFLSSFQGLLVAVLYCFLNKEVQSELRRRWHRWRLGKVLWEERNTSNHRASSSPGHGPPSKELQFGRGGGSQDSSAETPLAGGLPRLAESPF
As to the kind of experiment: Functional cAMP formation (HTRF) in HEK-293 clonal cells expressing hGCGR, 0.1% bovine casein, without or with 1.0% human serum albumin. The note with it: geometric mean. The essentials: as §1
On the technique in general: Changes in cAMP serve as a functional read-out for many G protein-coupled receptors.

Assay [3] concerns the target T2, hGIPR (Homo sapiens, UniProt P48546).
T2 construct: expressed in transfected cells
T2 sequence (P48546 22-466): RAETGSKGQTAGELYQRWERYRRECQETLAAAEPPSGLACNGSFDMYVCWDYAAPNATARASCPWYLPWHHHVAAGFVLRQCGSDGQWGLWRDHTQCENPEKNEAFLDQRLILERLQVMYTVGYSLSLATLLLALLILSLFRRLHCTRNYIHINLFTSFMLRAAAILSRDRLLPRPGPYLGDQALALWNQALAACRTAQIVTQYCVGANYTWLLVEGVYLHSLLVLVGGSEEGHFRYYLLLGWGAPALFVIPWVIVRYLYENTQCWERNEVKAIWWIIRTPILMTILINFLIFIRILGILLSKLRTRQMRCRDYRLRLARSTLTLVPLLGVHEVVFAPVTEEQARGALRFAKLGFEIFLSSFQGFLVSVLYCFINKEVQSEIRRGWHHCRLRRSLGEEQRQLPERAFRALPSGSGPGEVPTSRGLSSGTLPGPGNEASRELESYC
As to the kind of experiment: Functional cAMP formation (HTRF) in HEK-293 clonal cells expressing hGIPR, 0.1% bovine casein, without or with 1.0% human serum albumin. The note with it: for EC50: cAMP, 0.1% bovine casein (no human serum albumin), geometric mean. The essentials:
as §1

As a reminder, the Emax is the size of the effect at its maximum, as opposed to the concentration needed. By EC50 is commonly meant the concentration giving half of the maximal effect. Regarding `CC[C@H](C)[C@H](NC(=O)[C@H](CCCN)NC(=O)[C@H](CC(=O)O)NC(=O)[C@H](CC(C)C)NC(=O)[C@](C)(CC(C)C)NC(=O)[C@@H](NC(=O)[C@H](CO)NC(=O)[C@H](CCc1ccc(O)cc1)NC(=O)[C@H](CC(=O)O)NC(=O)[C@H](CO)NC(=O)[C@@H](NC(=O)[C@](C)(Cc1ccccc1F)NC(=O)[C@@H](NC(=O)CNC(=O)[C@H](CCC(=O)O)NC(=O)C(C)(C)NC(=O)[C@@H](N)Cc1ccc(O)cc1)[C@@H](C)O)[C@@H](C)O)[C@@H](C)CC)C(=O)N[C@@H](C)C(=O)N[C@@H](CCC(N)=O)C(=O)NC(C)(C)C(=O)N[C@@H](CCC(=O)O)C(=O)N[C@@H](Cc1ccccc1)C(=O)N[C@H](C(=O)N[C@@H](CCCCNC(=O)COCCOCCNC(=O)COCCOCCNC(=O)CC[C@H](NC(=O)CCCCCCCCCOc1ccc(C(=O)O)cc1)C(=O)O)C(=O)N[C@@](C)(Cc1ccc(O)cc1)C(=O)N[C@@H](CC(C)C)C(=O)N[C@H](C(=O)N[C@@H](CCCCNC(=O)COCCOCCNC(=O)COCCOCCNC(=O)CC[C@H](NC(=O)CCCCCCCCCOc1ccc(C(=O)O)cc1)C(=O)O)C(=O)NCC(=O)NCC(=O)N1CCC[C@H]1C(=O)N[C@@H](CO)C(=O)N[C@@H](CO)C(=O)NCC(=O)N[C@@H](C)C(=O)N1CCC[C@H]1C(=O)N1CCC[C@H]1C(=O)N1CCC[C@H]1C(=O)N[C@@H](CO)C(N)=O)[C@@H](C)CC)[C@@H](C)CC` [Example 310], the Emax was found to be 105% in assay [1] (HEK293, read-out: hGLP-1R Emax, % ± SEM, cAMP, 37° C., 0.1% bovine casein, percent of maximal response to GLP-1(7-36)NH2); 83.9% in assay [3] (HEK293, read-out: hGIPR Emax, % ± SEM, 0.1% bovine casein and 1.0% human serum albumin, 37° C., percent of maximal response to GIP(1-42)NH2). Besides, the EC50 in assay [1] (hGLP-1R EC50, nM (SEM, n), 37° C.) was 0.347 nM; in assay [2] (hGCGR EC50, nM (SEM, n), 0.1% bovine casein and 1.0% human serum albumin, 37° C.), above 9950 nM; in assay [2] (hGCGR EC50, nM (SEM, n), cAMP, 37° C., 0.1% bovine casein (no human serum albumin)) it was above 9950 nM; in assay [3] (hGIPR EC50, nM (SEM, n), 37° C.) it was 0.025 nM.

For `CC[C@H](C)[C@H](NC(=O)[C@H](CC(C)C)NC(=O)[C@](C)(Cc1ccc(O)cc1)NC(=O)[C@@H](CCC(=O)O)NC(=O)[C@@H](NC(=O)[C@H](Cc1csc2ccccc12)NC(=O)[C@H](CCC(=O)O)NC(=O)C(C)(C)NC(=O)[C@H](CCC(N)=O)NC(=O)[C@H](C)NC(=O)[C@H](CCCCNC(=O)COCCOCCNC(=O)COCCOCCNC(=O)CC[C@H](NC(=O)CCCCCCCCCCCCC(=O)O)C(=O)O)NC(=O)[C@H](CCCN)NC(=O)[C@H](CC(=O)O)NC(=O)[C@H](CC(C)C)NC(=O)[C@](C)(CC(C)C)NC(=O)[C@@H](NC(=O)[C@H](CO)NC(=O)[C@H](Cc1ccncc1)NC(=O)[C@H](CC(=O)O)NC(=O)[C@H](CO)NC(=O)[C@@H](NC(=O)[C@](C)(Cc1ccccc1F)NC(=O)[C@@H](NC(=O)CNC(=O)[C@H](CCC(=O)O)NC(=O)C(C)(C)NC(=O)[C@@H](N)Cc1ccc(O)cc1)[C@@H](C)O)[C@@H](C)O)[C@@H](C)CC)[C@@H](C)CC)C(=O)N[C@@H](CCC(=O)O)C(=O)NCC(=O)NCC(=O)N[C@@H](CCCCNC(=O)COCCOCCNC(=O)COCCOCCNC(=O)CC[C@H](NC(=O)CCCCCCCCCCCCC(=O)O)C(=O)O)C(=O)N[C@@H](CO)C(=O)N[C@@H](CO)C(=O)NCC(=O)N[C@@H](C)C(=O)N1CCC[C@H]1C(=O)N1CCC[C@H]1C(=O)N1CCC[C@H]1C(=O)N[C@@H](CO)C(N)=O` [Example 147], in assay [1] (HEK293, percent of maximal response to GLP-1(7-36)NH2, 37° C., 0.1% bovine casein, read-out: hGLP-1R Emax, % ± SEM), the Emax was determined as 93.5%. In addition, the EC50 was 0.338 nM in assay [1] (incubated at 37° C., read-out: hGLP-1R EC50, nM (SEM, n)); above 9950 nM in assay [2] (cAMP, incubated at 37° C., 0.1% bovine casein (no human serum albumin), read-out: hGCGR EC50, nM (SEM, n)); 0.0229 nM in assay [3] (incubated at 37° C., read-out: hGIPR EC50, nM (SEM, n)).

Values taken from US20230265151A1, “GIP/GLP1 CO-AGONIST COMPOUNDS” (priority 2020, published 2023).
